Results: PubChem BioAssay AID1259407 (Chemical Carcinogenesis Research Information System (CCRIS), 2018)
The source made the active and inactive calls. The rule behind the calls is not given here.

Test system: CCRIS mutagenicity, Ames/micronucleus/aberration tests
Assay: CCRIS mutagenicity studies
[1] = Test System: AMES SALMONELLA TYPHIMURIUM, Strain/Indicator: TA98, Metabolic Activation: NONE, Method: STANDARD PLATE
[2] = Test System: AMES SALMONELLA TYPHIMURIUM, Strain/Indicator: TA100, Metabolic Activation: NONE, Method: STANDARD PLATE
[3] = Test System: AMES SALMONELLA TYPHIMURIUM, Strain/Indicator: TA1535, Metabolic Activation: NONE, Method: STANDARD PLATE
[4] = Test System: AMES SALMONELLA TYPHIMURIUM, Strain/Indicator: TA1537, Metabolic Activation: NONE, Method: STANDARD PLATE
[5] = Test System: AMES SALMONELLA TYPHIMURIUM, Strain/Indicator: TA100, Metabolic Activation: RAT, LIVER, S-9, AROCLOR 1254, Method: STANDARD PLATE

Measured: mutagenic call

CC1=C(C(=O)OC(C)C)C(c2cccc([N+](=O)[O-])c2)C(C(=O)OC2CN(C(c3ccccc3)c3ccccc3)C2)=C(N)N1 (stereo unspecified)
inactive: [1] inactive; negative | Test System: AMES SALMONELLA TYPHIMURIUM, Strain/Indicator: TA98, Metabolic Activation: RAT LIVER S-9, Method: STANDARD PLATE inactive; negative | [2] inactive; negative | Test System: AMES SALMONELLA TYPHIMURIUM, Strain/Indicator: TA100, Metabolic Activation: RAT LIVER S-9, Method: STANDARD PLATE inactive; negative | [3] inactive; negative | Test System: AMES SALMONELLA TYPHIMURIUM, Strain/Indicator: TA1535, Metabolic Activation: RAT LIVER S-9, Method: STANDARD PLATE inactive; negative | [4] inactive; negative | Test System: AMES SALMONELLA TYPHIMURIUM, Strain/Indicator: TA1537, Metabolic Activation: RAT LIVER S-9, Method: STANDARD PLATE inactive; negative | Test System: E.COLI, Strain/Indicator: WP2 UVRA, Metabolic Activation: NONE, Method: STANDARD PLATE inactive; negative | Test System: E.COLI, Strain/Indicator: WP2 UVRA, Metabolic Activation: RAT LIVER S-9, Method: STANDARD PLATE inactive; negative

OCC(Br)CBr (stereo unspecified)
active: Test System: AMES SALMONELLA TYPHIMURIUM, Strain/Indicator: TA98, Metabolic Activation: HAMSTER, LIVER, S-9, AROCLOR 1254 (10%), Method: PREINCUBATION active; positive | Test System: AMES SALMONELLA TYPHIMURIUM, Strain/Indicator: TA98, Metabolic Activation: NONE, Method: PREINCUBATION active; positive | Test System: AMES SALMONELLA TYPHIMURIUM, Strain/Indicator: TA98, Metabolic Activation: RAT, LIVER, S-9, AROCLOR 1254 (10%), Method: PREINCUBATION active; positive | Test System: AMES SALMONELLA TYPHIMURIUM, Strain/Indicator: TA100, Metabolic Activation: HAMSTER, LIVER, S-9, AROCLOR 1254 (10%), Method: PREINCUBATION active; positive | Test System: AMES SALMONELLA TYPHIMURIUM, Strain/Indicator: TA100, Metabolic Activation: NONE, Method: PREINCUBATION active; positive | Test System: AMES SALMONELLA TYPHIMURIUM, Strain/Indicator: TA100, Metabolic Activation: RAT, LIVER, S-9, AROCLOR 1254 (10%), Method: PREINCUBATION active; positive | [5] active; positive | Test System: AMES SALMONELLA TYPHIMURIUM, Strain/Indicator: TA102, Metabolic Activation: S-9, Method: STANDARD PLATE active; positive | Test System: AMES SALMONELLA TYPHIMURIUM, Strain/Indicator: TA1535, Metabolic Activation: HAMSTER, LIVER, S-9, AROCLOR 1254 (10%), Method: PREINCUBATION active; positive | Test System: AMES SALMONELLA TYPHIMURIUM, Strain/Indicator: TA1535, Metabolic Activation: NONE, Method: PREINCUBATION active; positive | Test System: AMES SALMONELLA TYPHIMURIUM, Strain/Indicator: TA1535, Metabolic Activation: RAT, LIVER, S-9, AROCLOR 1254 (10%), Method: PREINCUBATION active; positive | Test System: AMES SALMONELLA TYPHIMURIUM, Strain/Indicator: TA1535, Metabolic Activation: RAT, LIVER, S-9, AROCLOR 1254, Method: STANDARD PLATE active; positive | Test System: AMES SALMONELLA TYPHIMURIUM, Strain/Indicator: TA2638, Metabolic Activation: S-9, Method: STANDARD PLATE active; positive | Test System: E. COLI, Strain/Indicator: WP2 (PKM101), Metabolic Activation: S-9, Method: STANDARD PLATE active; positive | Test System: E. COLI, Strain/Indicator: WP2 UVRA (PKM101), Metabolic Activation: S-9, Method: STANDARD PLATE active; positive | Test System: MOUSE LYMPHOMA, Strain/Indicator: L5178Y (TK+/TK-), Metabolic Activation: NONE, Method: SUSPENSION/PLATE active; positive
inactive: Test System: AMES SALMONELLA TYPHIMURIUM, Strain/Indicator: TA1537, Metabolic Activation: HAMSTER, LIVER, S-9, AROCLOR 1254 (10%), Method: PREINCUBATION inactive; negative | Test System: AMES SALMONELLA TYPHIMURIUM, Strain/Indicator: TA1537, Metabolic Activation: NONE, Method: PREINCUBATION inactive; negative | Test System: AMES SALMONELLA TYPHIMURIUM, Strain/Indicator: TA1537, Metabolic Activation: RAT, LIVER, S-9, AROCLOR 1254 (10%), Method: PREINCUBATION inactive; negative

CCCCCC/C=C\CCCCCCOC(C)=O
inactive: [1] inactive; negative | Test System: AMES SALMONELLA TYPHIMURIUM, Strain/Indicator: TA98, Metabolic Activation: RAT, LIVER, S-9, Method: STANDARD PLATE inactive; negative | [2] inactive; negative | Test System: AMES SALMONELLA TYPHIMURIUM, Strain/Indicator: TA100, Metabolic Activation: RAT, LIVER, S-9, Method: STANDARD PLATE inactive; negative | Test System: AMES SALMONELLA TYPHIMURIUM, Strain/Indicator: TA102, Metabolic Activation: NONE, Method: STANDARD PLATE inactive; negative | Test System: AMES SALMONELLA TYPHIMURIUM, Strain/Indicator: TA102, Metabolic Activation: RAT, LIVER, S-9, Method: STANDARD PLATE inactive; negative

CN(C)CCNC(=O)c1cccc2[nH]c(-c3ccccc3)nc12
active: [4] active; positive

CNc1ccc(N=Nc2ccc(NC)cc2)cc1
inactive: Test System: AMES SALMONELLA TYPHIMURIUM, Strain/Indicator: TA98, Metabolic Activation: RAT, LIVER, S-9, POLYCHLORINATED BIPHENYLS, Method: PREINCUBATION inactive; negative | Test System: AMES SALMONELLA TYPHIMURIUM, Strain/Indicator: TA100, Metabolic Activation: RAT, LIVER, S-9, POLYCHLORINATED BIPHENYLS, Method: PREINCUBATION inactive; negative

FC(Cl)C(F)(F)C(F)(F)Cl (stereo unspecified)
inactive: [1] inactive; negative | Test System: AMES SALMONELLA TYPHIMURIUM, Strain/Indicator: TA98, Metabolic Activation: RAT LIVER S-9, PHENOBARBITAL, 5,6-BENZOFLAVONE, Method: STANDARD PLATE inactive; negative | [2] inactive; negative | Test System: AMES SALMONELLA TYPHIMURIUM, Strain/Indicator: TA100, Metabolic Activation: RAT LIVER S-9, PHENOBARBITAL, 5,6-BENZOFLAVONE, Method: STANDARD PLATE inactive; negative | [3] inactive; negative | Test System: AMES SALMONELLA TYPHIMURIUM, Strain/Indicator: TA1535, Metabolic Activation: RAT LIVER S-9, PHENOBARBITAL, 5,6-BENZOFLAVONE, Method: STANDARD PLATE inactive; negative | [4] inactive; negative | Test System: AMES SALMONELLA TYPHIMURIUM, Strain/Indicator: TA1537, Metabolic Activation: RAT LIVER S-9, PHENOBARBITAL, 5,6-BENZOFLAVONE, Method: STANDARD PLATE inactive; negative | Test System: ESCHERICHIA COLI, Strain/Indicator: WP2 UVR A, Metabolic Activation: NONE, Method: STANDARD PLATE inactive; negative | Test System: ESCHERICHIA COLI, Strain/Indicator: WP2 UVR A, Metabolic Activation: RAT LIVER S-9, PHENOBARBITAL, 5,6-BENZOFLAVONE, Method: STANDARD PLATE inactive; negative | Test System: UDS RAT HEPATOCYTES IN VIVO, Strain/Indicator: THYMIDINE INCORPORATION, Metabolic Activation: NONE, Method: INHALATION (6HR, NOSE-ONLY, 2-OR 16-HR HARVEST)/AUTORADIOGRAPHY inactive; negative

Cc1cc2c(c3ccc4ccccc4c13)CCC2
inactive: [2] inactive; negative | [5] inactive; negative
